The values that follow come from article PMC9414676, “Experimental Studies Indicate That ST-2223, the Antagonist of Histamine H3 and Dopamine D2/D3 Receptors, Restores Social Deficits and Neurotransmission Dysregulation in Mouse Model of Autism” (Pharmaceuticals, 2022).

One assay deals with EeAChE (Electrophorus electricus, UniProt O42275). The experiment in a line: Acetylcholine esterase inhibition (preliminary data). It is filed as biochemical, electric eel.
In a further assay the test system is BTBR mice. Description: Open field locomotor test (OFL), anxiety-like behavior and locomotion. Format: in vivo. As to the method:
(§1) All the mice were randomly divided into nine groups of 5–7 mice each. The mice were injected intraperitonially once daily for 21 days with different doses of ST2223 (2.5, 5, and 10 mg/kg, i.p.), ARP 1 mg/kg or vehicle (1% DMSO in 0.9% normal saline). Group I, B6 mice were injected with vehicle served as control. Group II, BTBR mice were treated with vehicle. Groups III–V, BTBR mice received i.p. injections of different doses of ST2223 (2.5, 5, and 10 mg/kg, i.p.), respectively. Group VI, BTBR mice were injected with ARP (1 mg/kg, i.p.). For abrogation studies, Group VII, BTBR mice were treated with ST2223 (5 mg/kg, i.p.) along with RAM (10 mg/kg, i.p.). Group VIII, B6 mice were co-injected with vehicle and RAM (10 mg/kg, i.p). All treatments and vehicle (VEH) were administered 30–45 min before each behavioral test. The doses of these drugs were selected based on previous reports. Behavioral testing was performed between 9:00 am and 3:00 pm in an order randomized by group and in the following sequence: social approach test (SAT) and open field locomotor test (OFL). The chronic treatment started one week before the behavioral test and was continued for a total of 21 days as described above (Figure 7). Following behavioral tests, i.e., on day 21 of systemic treatment, five of the animals were sacrificed. The animals were deeply anesthetized with pentobarbital (40 mg/kg, i.p., body weight). To wash out the blood, cardiac perfusion was carried out using 0.01 M phosphate-buffered saline (PBS) at pH 7.4. The brains were quickly removed and placed on an ice plate, where the cerebellum, hippocampus, prefrontal cortex, and striatum were excised from the brain and snap-frozen in liquid nitrogen for later LC-MS/MS analysis.
Open field locomotor test (OFL) systematically assesses exploratory activity based on subjecting an animal to an unfamiliar environment whose escape is prevented by surrounding walls. It is a model of anxiety-like behavior, suitable for assessing motor activity as a reaction to an unknown environment, i.e., locomotion motivated by exploration. Both general locomotor activity and anxiety-related behaviors were assessed as the mice were placed individually inside an open field arena (45 × 45 × 30 cm) and were allowed to move freely for 10 min [80]. Mice were introduced into the center area of the arena (23 × 23 cm) and given 5 min habituation before actual behaviors recording. The overall distance moved inside the complete arena and time spent in the center and periphery was recorded for 10 min using CCD camera-assisted motion tracking equipment and software program (EthoVision 3.1, Noldus Information Technology, The Netherlands). Measurements obtained included total distance traveled and center and periphery time spent for […]. After each testing sessions, chambers we cleaned with 70% ethanol, and enough time was allowed for ethanol evaporation and odor dissipation. When evaluating the results, more time spent in the center indicated low levels of anxiety-like behaviors and total distance travelled represented locomotor activity.

For assay [1], the system named is dopamine levels in BTBR mice brain. Description: Dopamine levels by LC-MS/MS in brain regions. Format: in vivo. Also noted: key to Dopamine level: ↔: No significant alterations; ↑: significant increase; ↑↑: additional significant increase vs. ST-2223-treated mice; ↓: significant decrease. As to conditions: for Dopamine level: ST-2223 5 mg/kg i.p. chronic, vs VEH-treated BTBR mice. As to the method:
as §1
(§2) Perfusion was done on anesthetized animals using 1X PBS as described previously. Different regions of the brain were snap frozen. Frozen tissues were then weighed and homogenized in a 10-fold volume of acetonitrile. For 50mg of tissue, 500 µL of acetonitrile and Internal standard mix were added and homogenized. Homogenates were centrifuged at 15,000 rcf for 15 min at 4 °C. Tissue levels of dopamine, acetylcholine, histamine, and their metabolites were assessed using LC-MS/MS. LC-MS/MS analysis was conducted utilizing Waters BEH C18 COLUMN (2.1 × 100 mm, 1.7 µm) using Waters Acquity UPLC Binary Solvent Manager and FTN Sample Manager. The system was run in gradient mode with mobile phase A consisting of LC-MS GRADE WATER + 0.1% FORMIC ACID and mobile phase B consisting of 100% ACETONITRILE. Mobile phase was duly filtered through 0.2 µm filter and degassed ultrasonically for 15 min prior to use. Separations were performed at room temperature with 0.3 mL/min flow rate gradient starting with 90% of A for up to 0.5 min. Then, % of A was decreased gradually until it reached 20% at 2.5 min after which at 3 min %A was brought back to the initial condition and left for equilibration for 2 more minutes before the next injection (total 5 min run time). The injection volume was kept at 1 µL. Mass spectrometric detection was performed in multiple reaction monitoring (MRM) mode with positive electrospray ionization (ESI+) on Xevo TQS mass spectrometer (Waters, Milford, MA) equipped with an electrospray ionization (ESI) source and triple quadrupole mass analyzer. MRM transitions and instrument parameters were set by tuning the instrument by infusing each analyte. MRM transitions taken for quantification were 146.2 > 87.1 for Acetylcholine, 112.2 > 95.2 for Histamine, 154.1 > 137.2 for Dopamine, 150.2 > 91.3 for Acetylcholine D4, and […] > 99.3 for Histamine D4. Capillary Voltage, Source Offset, Source Temperature, De solvation Temperature, Cone Gas Flow, De solvation Gas Flow, Collision Gas Flow, Nebulizer Gas Flow were set as 3.0 (kV), 60.0 (V), 150 (°C), 550 (°C), 150 (L/Hr), 1000 (L/Hr), 0.13 (mL/min), and 7 (Bar), correspondingly. […]

Assay [2] concerns acetylcholine levels in BTBR mice brain. The experiment in a line: Acetylcholine levels by LC-MS/MS in brain regions. Format: in vivo. The arrangement: key to Acetylcholine level: ↔: No significant alterations; ↑: significant increase; ↑↑: additional significant increase vs. ST-2223-treated mice; ↓: significant decrease. Conditions: for Acetylcholine level: ST-2223 5 mg/kg i.p. chronic, vs VEH-treated BTBR mice. As to the method: as §1, §2

In a further assay the test system is B6 control mice. Also noted: method as in PMID 33669336. As to conditions: cited from earlier work.
Setting [3] is: ST-2223 5 mg/kg i.p. chronic, p < 0.05.
Setting [4] is: ST-2223 10 mg/kg i.p. chronic, p < 0.05.

EeAChE, sequence (O42275 24-633): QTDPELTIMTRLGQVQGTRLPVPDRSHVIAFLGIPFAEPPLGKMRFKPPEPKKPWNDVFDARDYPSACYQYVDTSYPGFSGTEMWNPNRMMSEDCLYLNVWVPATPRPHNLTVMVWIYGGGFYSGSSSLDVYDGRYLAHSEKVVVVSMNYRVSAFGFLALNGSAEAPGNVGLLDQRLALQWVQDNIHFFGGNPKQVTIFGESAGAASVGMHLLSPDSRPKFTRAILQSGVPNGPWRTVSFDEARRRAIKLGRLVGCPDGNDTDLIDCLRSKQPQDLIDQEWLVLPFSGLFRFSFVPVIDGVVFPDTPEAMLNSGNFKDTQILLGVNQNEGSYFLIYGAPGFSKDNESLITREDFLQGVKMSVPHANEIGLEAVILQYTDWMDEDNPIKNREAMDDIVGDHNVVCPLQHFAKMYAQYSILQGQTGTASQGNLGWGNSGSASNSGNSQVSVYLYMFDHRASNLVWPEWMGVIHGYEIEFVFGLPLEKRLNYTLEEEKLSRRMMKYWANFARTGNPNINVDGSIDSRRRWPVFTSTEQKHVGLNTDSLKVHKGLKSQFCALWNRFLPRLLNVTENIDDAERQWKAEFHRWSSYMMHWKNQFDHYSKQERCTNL

As for `COc1ccccc1N1CCN(CCCCNC(=O)c2ccc3cc(OCCCN4CCCCC4)ccc3c2)CC1` [ST-2223, N-(4-(4-(2-methoxyphenyl)piperazin-1-yl)butyl)-6-(3-(piperidin-1-yl)propoxy)-2-naphthamide], the “inhibition of acetylcholine esterase enzyme (eeAChE), in words” value at EeAChE is reported as “neglectful inhibition”. For the same compound, the “time spent in the periphery” value in the assay on BTBR mice (ST-2223 2.5 mg/kg i.p. chronic) is listed as “no group differences”; with BTBR mice (setting [3]), “significantly corrected the decreased time”; with BTBR mice (ST-2223 10 mg/kg i.p. chronic) it was “no group differences”. Further, the “time spent in the center of the open field” value in the assay with BTBR mice (ST-2223 2.5 mg/kg i.p. chronic, p = 0.84) is “failed to decrease the time spent in the center of the arena to a significant level”; in the assay on BTBR mice (setting [3]), “significantly less time in the central compartment”; with BTBR mice (setting [4]) it was “significantly less time in the central compartment”. For the same compound, the “total distance travelled vs VEH-treated BTBR mice” value in the assay with BTBR mice (setting [3]) and in the assay with BTBR mice (setting [4]) was “significantly decreased the total distance travelled” in each case. For the same compound, the Dopamine level entry was “↓ ^b” in assay [1] (Cerebellum), “↔” in assay [1] (Hippocampus), “↑ ^b” in assay [1] (Prefrontal cortex) and “↑ ^b” in assay [1] (Striatum). In addition, the “dopamine levels” value in assay [1] (prefrontal cortex and striatum, ST-2223 5 mg/kg chronic, p < 0.05) is “significantly increased the dopamine levels in both regions”. Further, the Acetylcholine level result in assay [2] (Hippocampus), in assay [2] (Prefrontal cortex) and in assay [2] (Striatum) was “↑ ^b” each time. Moreover, in assay [2] (prefrontal cortex, striatum and hippocampus, ST-2223 5 mg/kg chronic, p < 0.05), the “acetylcholine levels” value is on record as “significant increase of acetylcholine levels”. In the assay on B6 control mice, the “behavioral alterations in B6 control mice” value is “no behavioral alterations”.
